These results are taken from patent US8802705B2, “Pharmaceutical containing PPAR delta agonist” (Senju Pharmaceutical Co., Ltd., priority 2007, dated 2014).

Experiment [1] relates to Normal human corneal epithelial cells. As to the kind of experiment: Effect on increase of cell number of normal human corneal epithelial cells (Experimental Example 1, Cell Counting Kit-8). The experiment is classed as cell-based. The note with it: for cell number increase rate: 24 hr stimulation, relative to non-addition group = 100%, mean ± SD, N = 3-4. As to the method: Normal human corneal epithelial cells (KURABO) were used.
As a test substance, [3-[2-[4-isopropyl-2-(4-trifluoromethyl)phenyl-5-thiazolyl]ethyl]-5-methyl-1,2-benzisoxazol-6-yl]oxyacetic acid (hereinafter to be referred to as compound A) was used. Compound A was dissolved in ethanol (Wako Pure Chemical Industries, Ltd.) to a concentration 200-fold of the final concentration in a culture medium, and the solution was stored at −80° C. until immediately before use.
As a cell culture medium for consideration of the cell number-increasing effect by compound A, a culture medium (basal medium) obtained by adding insulin, hydrocortisone and transferrin contained in HCGS growth additive set (KURABO) to EpiLife (KURABO) was used.
Normal human corneal epithelial cells cryopreserved in liquid nitrogen were thawed and the cell number was counted. The total amount thereof was transferred to EpiLife added with all of the HCGS growth additive set (insulin, epidermal growth factor mEGF derived from mouse, hydrocortisone, transferrin, bovine brain hypophysis extract) (4 mL, complete medium), and suspended well therein. The cell suspension was seeded on a fibronectin-coated 24 well plate (Becton Dickinson) at a cell number of 2×10^4 cells/500 μL/well (1×10^4 cells/cm^2 since bottom area was 2 cm^2).
After completion of cell seeding, the culture plate was incubated in an incubator set to 37° C., 5% CO2, 95% air and 100% humidity for 24 hr, and the culture medium was changed to 400 μL of the basal medium (EpiLife added with insulin, hydrocortisone and transferrin from HCGS growth additives).
After 24 hr thereafter, the culture medium was changed to the following culture medium (each 400 μL). • [1] basal medium alone (non-addition group) • [2] basal medium+mEGF (final concentration: 1 ng/mL; positive control group) • [3] basal medium+compound A (final concentration: 0.1 nM, 1 nM, 0.01 μM, 0.1 μM; compound A addition group)
Ethanol (5 μL) was added to 1 mL each of culture media and [2] to uniformly set the ethanol concentration of all culture media to 0.5%.
After 24 hr from the start of the stimulation with compound A, the culture supernatant was removed from each well, and a basal medium added with 10% Cell Counting Kit-8 (DOJINDO) was dispensed to each well by 200 μL. After dispensing, the culture plate was transferred to an incubator set to 37° C., 5% CO2, 95% air and 100% humidity and incubated for 2 hr. The supernatant (100 μL) was transferred to a 96 well culture plate for tissue culture (Corning), and the absorbance of each well at 450 nm was measured with a microplate reader (Dainippon Sumitomo Pharma Co., Ltd.), and used as an index of cell number increase.
The values of the positive control group and the compound A addition group were calculated based on the average absorbance of the non-addition group as 100%, and the non-addition group was compared with the compound A addition group and positive control group according to the Dunnett multiple comparison test (one-tailed). A critical value of less than 5% as a result of the test was judged as significant.
Background: Tetrazolium dyes change colour on reduction, which living cells bring about.

In experiment [2] the test system is monkey meibomian gland epithelial cells. The experiment can be described thus: Effect on cell number increase in meibomian gland epithelial cells (Experimental Example 3, Cell Counting Kit-8). The experiment is classed as cell-based. To be noted: medium renewed every 48 hr (3 x 48 hr), relative to non-addition group = 100%, mean ± SD, N = 5 or 10. The source says: An eyelid of monkey isolated and stored in D-PBS was transferred to a clean bench, and cell preparation was aseptically performed as follows.
The isolated eyelid was immersed in 80% ethanol for 30 sec, washed three times with D-PBS added with 1% penicillin-streptomycin (Invitrogen), and transferred to a minimum essential medium (MEM; Invitrogen). The adipose tissue and muscular tissue surrounding the meibomian glandular tissue of the eyelid were removed under a stereomicroscope. They were transferred to MEM containing 0.3 U/mL collagenase A (Roche Diagnostics) and 2.4 U/mL dispase II (Roche Diagnostics), and shaken at 37° C. for 4 hr and at 4° C. overnight. The enzyme-treated tissue was set under a stereomicroscope, and the eyelash and eyelid connective tissue were removed to isolate the meibomian glandular tissue. Trypsin-EDTA (4 mL, Invitrogen) was added to the isolated glandular tissue, and the mixture was incubated at 37° C. for 10 min. After incubation, MEM (5 mL) containing 10% FBS (Invitrogen) was added thereto to stop the enzyme reaction, and the tissue constituting cells were dispersed by repeated suction and discharge of the mixture 5 times using an injection syringe equipped with a 21 G injection needle. The cell dispersion was passed through 100 μm and 40 μm nylon filters (Cell Strainer; Falcon), and cell mass and the like contained therein which could not be treated with the enzyme were removed. The cell suspension passed through the filters was collected in a centrifuge tube (50 mL) and centrifuged at room temperature, 1,500 rpm for 5 min. To the cell layers containing the object cells obtained by the centrifugation was added 80 μL of D-PBS containing 0.5% bovine serum albumin (BSA; Sigma-Aldrich), and the cells were sufficiently suspended therein. Anti-Fibroblast Microbeads (Militenyi Biotec, 20 μL) was added thereto, and the mixture was left standing at room temperature for 30 min. After completion of the reaction with an antibody, 2 mL of D-PBS containing 0.5% BSA was added thereto, and the mixture was centrifuged again at room temperature, 1,500 rpm for 5 min. To the cell layers containing the object cells obtained by the centrifugation was added 1 mL of D-PBS containing 0.5% BSA, and the cells were sufficiently suspended therein. The suspension was added dropwise to LD column (Militenyi Biotec) equilibrated in advance with a column washing solution (D-PBS containing 2 mM EDTA (DOJINDO LABORATORIES) and 0.5% BSA). Then, 2 mL of the column washing solution was added dropwise to the LD column. […] The cells collected in the centrifuge tube were centrifuged at room temperature, 1,500 rpm for 5 min, and the supernatant was removed. The sediment was suspended in Defined Keratinocyte Serum Free Medium (5 mL), centrifuged at room temperature, 1,500 rpm for 5 min, and removed the supernatant. Again, the residue was suspended in DK-SFM (3 mL), centrifuged at room temperature and 1,500 rpm for 5 min, and the supernatant was removed. The cells were suspended in DK-SFM (2 mL), and seeded on a 6 well multi-well plate for cell culture, which had been treated with collagen. The seeded cells were cultured in Defined keratinocyte-Serum Free Medium (DK-SFM; Invitrogen, attached Supplement was added as instructed in the preparation protocol), cultured in an incubator (SANYO) set to 37° C., 5% CO2, 95% air, 100% humidity, and the culture medium was exchanged with a new one every 48 hr until the cells became subconfluent.
As a test substance, compound A, [4-[3-[2-(4-trifluoromethyl)phenyl-4-isopropyl-5-thiazolyl]propionyl]-2-methylphenoxy]acetic acid (hereinafter to be referred to as compound B) or [4-[3-[2-(2-hydroxy-4-chlorophenyl)-5-isopropyl-4-oxazolyl]propionyl]-2-methylphenoxy]acetic acid (hereinafter to be referred to as compound C) was used. […]

Regarding `Cc1cc2c(CCc3sc(-c4ccc(C(F)(F)F)cc4)nc3C(C)C)noc2cc1OCC(=O)O` [compound A, [3-[2-[4-isopropyl-2-(4-trifluoromethyl)phenyl-5-thiazolyl]ethyl]-5-methyl-1,2-benzisoxazol-6-yl]oxyacetic acid], in experiment [1] (0.1 nM-0.1 μM, conclusion of the test), the “effect on cell number of normal human corneal epithelial cells (in words)” value was “increases the cell number of normal human corneal epithelial cells”. Besides, the “cell number increase rate” value in experiment [1] (10^−7 M) stood at 172.6 ± 16.0%; in experiment [1] (10^−8 M), 187.4 ± 10.2%; in experiment [1] (10^−9 M) it was 169.0 ± 8.2%; in experiment [1] (10^−10 M), 177.4 ± 20.8%. For the same compound, the “cell number increase ratio” value was 189.8 ± 13.1% in experiment [2] (10^−6 M), 177.1 ± 9.7% in experiment [2] (10^−7 M) and 175.3 ± 9.0% in experiment [2] (10^−8 M).
